This note sets out measurements from publication PMC3485097, “Branching of the p-nitrophenol (PNP) degradation pathway in burkholderia sp. Strain SJ98: Evidences from genetic characterization of PNP gene cluster” (AMB Express, 2012).

Experiment [1] deals with T1, reconstituted HqD (PnpE1_2-PnpE2_2 heterotetrameric complex).
T1 construct: gene pnpE1; N-terminal 6xHis on both subunits (pDEST17), E. coli BL21-AI; mixed, gel-filtered, ~120 kDa heterotetramer; with Hydroquinone dioxygenase small subunit
Put plainly: spectrophotometric, 4-hydroxymuconic semialdehyde formation at […] nm. It counts as biochemical, Burkholderia sp. SJ98. Particulars: pH 7.0, 25°C; Fe(II) required (100 μM FeSO4 in the standard assay).

For experiment [2], the target named is PnpE2, small subunit of hydroquinone dioxygenase (HqD) of Burkholderia sp. strain SJ98 (Burkholderia sp. strain SJ98). The experiment can be described thus: SEC; purified PnpE1 and PnpE2 mixed in molar ratios from 3:1 to 1:3 in 50 mM phosphate buffer pH 7.0, incubated at 30°C for 1 h, then Sephacryl-200 gel filtration; molecular weight from the elution volume against standard proteins. (In general: Size exclusion chromatography separates by hydrodynamic size, large species first.)

In the case of `Oc1ccc(O)cc1` [HQ, hydroquinone], the Km in experiment [1] was 65.3 ± 10.5 µM. Turning to “PnpE1, large subunit of hydroquinone dioxygenase (HqD) of Burkholderia sp. strain SJ98 (natural protein)”, the stoichiometry N (molecules of each subunit (2:2)) in experiment [2] turned out to be 2.

Usually Km stands for the concentration of substrate that gives half-maximal velocity.
